Assay results: PubChem BioAssay AID1963985 (Molecular Pharmacology Branch, DTP, NCI, 2024)

Test system: 252836-082-R-J2-PDC tumor spheroids, viability
Experiment: Anticancer human tumor 252836-082-R-J2-PDC patient-derived head and neck squamous cell carcinoma cell line growth inhibition [PI3K]
Details: spheroids with HUVEC and MSC; for IC50: curve of first compound; for viability, T/C: stronger effect = lower value
In short: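 Targeted small molecules plus PI3K inhibitors, half-log dose series from Cmax (default top 10 microM), were applied to heterotypic spheroids of cancer cells with HUVEC and MSCs. Viability indicated growth inhibition.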

[1] = second compound 0.0316 µM, first compound 0.000316 µM
[2] = second compound 0.0316 µM, first compound 0.001 µM
[3] = second compound 0.0316 µM, first compound 0.00316 µM
[4] = second compound 0.0316 µM, first compound 0.01 µM
[5] = second compound 0.0316 µM, first compound 0.0316 µM
[6] = second compound 0.0316 µM, first compound 0.1 µM
[7] = second compound 0.1 µM, first compound 0.000316 µM
[8] = second compound 0.1 µM, first compound 0.001 µM
[9] = second compound 0.1 µM, first compound 0.00316 µM
[10] = second compound 0.1 µM, first compound 0.01 µM
[11] = second compound 0.1 µM, first compound 0.0316 µM
[12] = second compound 0.1 µM, first compound 0.1 µM
[13] = second compound 0.316 µM, first compound 0.000316 µM
[14] = second compound 0.316 µM, first compound 0.001 µM
[15] = second compound 0.316 µM, first compound 0.00316 µM
[16] = second compound 0.316 µM, first compound 0.01 µM
[17] = second compound 0.316 µM, first compound 0.0316 µM
[18] = second compound 0.316 µM, first compound 0.1 µM
[19] = second compound 1 µM, first compound 0.000316 µM
[20] = second compound 1 µM, first compound 0.001 µM
[21] = second compound 1 µM, first compound 0.00316 µM
[22] = second compound 1 µM, first compound 0.01 µM
[23] = second compound 1 µM, first compound 0.0316 µM
[24] = second compound 1 µM, first compound 0.1 µM
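Also: spheroids exposed to agents for seven days before readout.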
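For viability, T/C in this document: percent of vehicle DMSO control viability so 100% = untreated growth.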

CC(=O)c1c(C)c2cnc(Nc3ccc(N4CCNCC4)cn3)nc2n(C2CCCC2)c1=O + Cc1nc(NC(=O)N2CCCC2C(N)=O)sc1-c1ccnc(C(C)(C)C(F)(F)F)c1
IC50 (second compound 0.0316 µM): > 100 nM | IC50 (second compound 0.1 µM): > 100 nM | IC50 (second compound 0.316 µM): > 100 nM | IC50 (second compound 1 µM): > 100 nM | IC50 (second compound 3.16 µM): < 0.316 nM | IC50 (second compound 10 µM): < 0.316 nM | viability, T/C [1]: 95.6% | viability, T/C [2]: 83.4% | viability, T/C [3]: 91.6% | viability, T/C [4]: 79.5% | viability, T/C [5]: 91.8% | viability, T/C [6]: 77.7% | viability, T/C [7]: 71.9% | viability, T/C [8]: 83.8% | viability, T/C [9]: 85.7% | viability, T/C [10]: 76.2% | viability, T/C [11]: 78.9% | viability, T/C [12]: 73.7% | viability, T/C [13]: 71.7% | viability, T/C [14]: 74.2% | viability, T/C [15]: 80.5% | viability, T/C [16]: 65.2% | viability, T/C [17]: 66.7% | viability, T/C [18]: 81.5% | viability, T/C [19]: 62.3% | viability, T/C [20]: 56.3% | viability, T/C [21]: 52.7% | viability, T/C [22]: 65.6% | viability, T/C [23]: 64.4% | viability, T/C [24]: 57.2% | viability, T/C (second compound 3.16 µM, first compound 0.000316 µM): 46.1% | viability, T/C (second compound 3.16 µM, first compound 0.001 µM): 45.5% | viability, T/C (second compound 3.16 µM, first compound 0.00316 µM): 39.2% | viability, T/C (second compound 3.16 µM, first compound 0.01 µM): 43.9% | viability, T/C (second compound 3.16 µM, first compound 0.0316 µM): 48.1% | viability, T/C (second compound 3.16 µM, first compound 0.1 µM): 41.1% | viability, T/C (second compound 10 µM, first compound 0.000316 µM): 27.9% | viability, T/C (second compound 10 µM, first compound 0.001 µM): 30.6% | viability, T/C (second compound 10 µM, first compound 0.00316 µM): 25.9% | viability, T/C (second compound 10 µM, first compound 0.01 µM): 35.7% | viability, T/C (second compound 10 µM, first compound 0.0316 µM): 33.3% | viability, T/C (second compound 10 µM, first compound 0.1 µM): 38.2%

CC(=O)c1c(C)c2cnc(Nc3ccc(N4CCNCC4)cn3)nc2n(C2CCCC2)c1=O + CC(Nc1ccc2c(c1)OCCn1cc(N3C(=O)OCC3C(F)F)nc1-2)C(N)=O
IC50 (second compound 0.00316 µM): > 100 nM | IC50 (second compound 0.01 µM): > 100 nM | IC50 (second compound 0.0316 µM): > 100 nM | IC50 (second compound 0.1 µM): > 100 nM | IC50 (second compound 0.316 µM): > 100 nM | IC50 (second compound 1 µM): < 0.316 nM | viability, T/C (second compound 0.00316 µM, first compound 0.000316 µM): 102% | viability, T/C (second compound 0.00316 µM, first compound 0.001 µM): 91.6% | viability, T/C (second compound 0.00316 µM, first compound 0.00316 µM): 94.5% | viability, T/C (second compound 0.00316 µM, first compound 0.01 µM): 89.8% | viability, T/C (second compound 0.00316 µM, first compound 0.0316 µM): 98.2% | viability, T/C (second compound 0.00316 µM, first compound 0.1 µM): 105% | viability, T/C (second compound 0.01 µM, first compound 0.000316 µM): 97.1% | viability, T/C (second compound 0.01 µM, first compound 0.001 µM): 84.9% | viability, T/C (second compound 0.01 µM, first compound 0.00316 µM): 93.7% | viability, T/C (second compound 0.01 µM, first compound 0.01 µM): 89.2% | viability, T/C (second compound 0.01 µM, first compound 0.0316 µM): 83.9% | viability, T/C (second compound 0.01 µM, first compound 0.1 µM): 87.9% | viability, T/C [1]: 90.8% | viability, T/C [2]: 76.1% | viability, T/C [3]: 74.1% | viability, T/C [4]: 70.7% | viability, T/C [5]: 81.4% | viability, T/C [6]: 82.4% | viability, T/C [7]: 68.8% | viability, T/C [8]: 68.9% | viability, T/C [9]: 69.8% | viability, T/C [10]: 70.8% | viability, T/C [11]: 66.5% | viability, T/C [12]: 67.5% | viability, T/C [13]: 54.9% | viability, T/C [14]: 53.6% | viability, T/C [15]: 65.1% | viability, T/C [16]: 50.7% | viability, T/C [17]: 62.2% | viability, T/C [18]: 55.7% | viability, T/C [19]: 47.5% | viability, T/C [20]: 45.6% | viability, T/C [21]: 41.9% | viability, T/C [22]: 42.4% | viability, T/C [23]: 44.9% | viability, T/C [24]: 45.1%
